From US9247759B2, “Identification of human T2R receptors that respond to bitter compounds that elicit the bitter taste in compositions, and the use thereof in assays to identify compounds that inhibit (block) bitter taste in compositions and use thereof” (SENOMYX, INC., priority 2007, dated 2016)

What follows are compounds tested against hT2R14 (Homo sapiens (Human), UniProt Q9NYV8) (assay: hT2R14 antagonist high-throughput FLIPR assay, stable cell line with G16g44, agonist aristolochic acid). Conditions: Table C; read-out: hT2R14 IC50.
Type: cell-based
Protocol: The inventors also used the automated fluorimetric […] system FLIPR using a slightly different protocol. A HEK293 cell line stably expressing G16gust44 was transfected with a hT2R expression plasmid, 24 hours later, the cells are loaded and analyzed on FLIPR.
After a ligand is identified for a particular hT2R, a HEK293 cell line stably expressing both the hT2R and G16gust44 are generated, facilitating future screening assays to identify other ligands that activate the particular hT2R or which modulate (block or enhance) the activation of this hT2R by another bitter ligand such as a bitter compound contained in coffee. This avoids the need for transient transfection.
To identify antagonists, cell lines stably expressing hT2R8 and hT2R14, respectively, together with the promiscuous chimeric G16g44 protein were generated as described in previous patent applications. A high-throughput assay was established using the stable cell lines and FLIPR (Fluorescent Imaging Plate Reader). An agonist of hT2R8 or hT2R14 was used to activate the receptors up to 70-80% of their respective maximal activity. For hT2R8, the agonist used was andrographolide (200 […]); for hT2R14, it was aristolochic acid (3 μM). To identify antagonists, compounds with diverse chemical structures were added together with the agonist.

Chain of hT2R14 (Q9NYV8 whole entry): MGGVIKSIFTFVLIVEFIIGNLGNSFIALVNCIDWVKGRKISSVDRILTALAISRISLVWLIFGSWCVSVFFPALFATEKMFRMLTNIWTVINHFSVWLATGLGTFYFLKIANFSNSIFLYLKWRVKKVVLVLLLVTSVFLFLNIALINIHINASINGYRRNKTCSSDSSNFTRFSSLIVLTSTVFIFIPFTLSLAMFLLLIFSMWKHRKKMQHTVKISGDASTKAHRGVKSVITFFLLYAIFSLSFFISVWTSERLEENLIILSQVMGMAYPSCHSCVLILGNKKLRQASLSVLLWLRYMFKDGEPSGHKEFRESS

Question: How did the IC50 turn out when `Cc1cc(NC(=S)N(Cc2ccccc2C)CC2CCC(C(=O)O)CC2)ccc1Cl` (stereo not shown) [Example 5-114, 4-((3-(4-chloro-3-methylphenyl)-1-(2-methylbenzyl)thioureido)methyl) cyclohexanecarboxylic acid] was run?
Answer: The IC50 was 4870 nM.

Question: How did the IC50 turn out when `COc1ccc(CN(Cc2ccccc2Cl)S(=O)(=O)c2ccc(C(=O)O)cc2)cc1` [Example 5-130, 4-(N-(2-chlorobenzyl)-N-(4-methoxybenzyl)sulfamoyl)benzoic acid] was run?
Answer: The IC50 was 7040 nM.

Question: With `CCOC(=O)C1CCC(CN(Cc2ccccc2)S(=O)(=O)c2ccc(NC(C)=O)cc2)CC1` (stereo not shown) [Example 5-115, ethyl 4-((4-acetamido-N-benzylphenylsulfonamido)methyl) cyclohexanecarboxylate] as the compound, how does the IC50 read?
Answer: The IC50 was 334 nM.

Question: Which IC50 does the source give for `CSc1ccc(CN(Cc2ccccc2)S(=O)(=O)c2ccc(C(=O)O)cc2)cc1` [Example 5-138, 4-(N-benzyl-N-(4-(methylthio)benzyl)sulfamoyl)benzoic acid] here?
Answer: The IC50 was 2460 nM.

Question: For `O=C(O)c1ccc(S(=O)(=O)N(Cc2ccccc2)Cc2cccc(F)c2)cc1` [Example 5-139, 4-(N-benzyl-N-(3-fluorobenzyl)sulfamoyl)benzoic acid], which IC50 is on record?
Answer: The IC50 was 2310 nM.

Question: Which IC50 does the source give for `Cc1ccccc1CN(Cc1ccccc1)S(=O)(=O)c1ccc(C(=O)O)cc1` [Example 5-140, 4-(N-benzyl-N-(2-methylbenzyl)sulfamoyl)benzoic acid] here?
Answer: The IC50 was 2930 nM.

Question: How did the IC50 turn out when `COc1cccc(CN(Cc2ccccc2)S(=O)(=O)c2ccc(C(=O)O)cc2)c1` [Example 5-136, 4-(N-benzyl-N-(3-methoxybenzyl)sulfamoyl)benzoic acid] was run?
Answer: The IC50 was 5990 nM.

Question: How did the IC50 turn out when `CCOC(=O)C1CCC(CN(Cc2ccccc2Cl)S(=O)(=O)c2ccc(C)cc2)CC1` (stereo not shown) [Example 5-117, ethyl 4-((N-(2-chlorobenzyl)-4-methylphenylsulfonamido)methyl) cyclohexanecarboxylate] was run?
Answer: Its IC50 is 2820 nM.

Question: With `COc1ccc(CN(Cc2ccccc2)S(=O)(=O)c2ccc(C(=O)O)cc2)cc1C` [Example 5-144, 4-(N-benzyl-N-(4-methoxy-3-methylbenzyl)sulfamoyl)benzoic acid] as the compound, how does the IC50 read?
Answer: Its IC50 is 2000 nM.

Question: For `COc1ccc(CN(Cc2ccccc2)S(=O)(=O)c2cccc(OC)c2)cc1` [Example 5-122, N-benzyl-3-methoxy-N-(4-methoxybenzyl)benzenesulfonamide], which IC50 is on record?
Answer: The IC50 was 2220 nM.

Question: `O=C(O)c1ccc(S(=O)(=O)N(Cc2ccccc2)Cc2cccc(Cl)c2)cc1` [Example 5-142, 4-(N-benzyl-N-(3-chlorobenzyl)sulfamoyl)benzoic acid] was tested. Which IC50 did it give?
Answer: The IC50 was 4290 nM.

Question: How did the IC50 turn out when `COc1ccc2c(c1)-c1ccccc1CN(S(=O)(=O)c1ccc(C(=O)O)cc1)C2` [Example 5-158, 4-(2-methoxy-5H-dibenzo[c,e]azepin-6(7H)-ylsulfonyl)benzoic acid] was run?
Answer: Its IC50 is 3570 nM.

Question: `CCOC(=O)C1CCC(CN(Cc2ccccc2)S(=O)(=O)c2ccc(Cl)cc2)CC1` (stereo not shown) [Example 5-119, ethyl 4-((N-benzyl-4-chlorophenylsulfonamido)methyl) cyclohexanecarboxylate] was tested. Which IC50 did it give?
Answer: Its IC50 is 672 nM.

Question: How did the IC50 turn out when `CCc1ccc(CN(CC2CCC(C(=O)O)CC2)C(=S)Nc2ccccc2C)cc1` (stereo not shown) [Example 5-113, 4-((1-(4-ethylbenzyl)-3-o-tolylthioureido)methyl) cyclohexanecarboxylic acid] was run?
Answer: The IC50 was 5020 nM.

Question: With `COc1ccc(S(=O)(=O)N(Cc2ccc(F)cc2)CC2CCC(C(=O)O)CC2)cc1` (stereo not shown) [Example 5-123, 4-((N-(4-fluorobenzyl)-4-methoxyphenylsulfonamido)methyl) cyclohexanecarboxylic acid] as the compound, how does the IC50 read?
Answer: The IC50 was 92 nM.

Question: `Cc1ccc(CN(Cc2ccccc2)S(=O)(=O)c2ccc(C(=O)O)cc2)cc1` [Example 5-132, 4-(N-benzyl-N-(4-methylbenzyl)sulfamoyl)benzoic acid] was tested. Which IC50 did it give?
Answer: The IC50 was 5390 nM.

Question: For `Cc1ccc(CN(CC2CCC(C(=O)O)CC2)S(=O)(=O)c2ccc(C)cc2)cc1` (stereo not shown) [Example 5-126, 4-((4-methyl-N-(4-methylbenzyl)phenylsulfonamido)methyl) cyclohexanecarboxylic acid], which IC50 is on record?
Answer: Its IC50 is 109 nM.

Question: For `O=C(O)c1ccc(S(=O)(=O)N(Cc2ccccc2)Cc2ccccc2F)cc1` [Example 5-134, 4-(N-benzyl-N-(2-fluorobenzyl)sulfamoyl)benzoic acid], which IC50 is on record?
Answer: The IC50 was 6160 nM.

Question: With `Nc1ccc(S(=O)(=O)N(Cc2ccc(F)cc2)CC2CCC(C(=O)O)CC2)cc1` (stereo not shown) [Example 5-125, 4-((4-amino-N-(4-fluorobenzyl)phenylsulfonamido)methyl) cyclohexanecarboxylic acid] as the compound, how does the IC50 read?
Answer: The IC50 was 1650 nM.

Question: `CCOC(=O)C1CCC(CN(Cc2ccccc2)S(=O)(=O)c2ccc(Br)cc2)CC1` (stereo not shown) [Example 5-118, ethyl 4-((N-benzyl-4-bromophenylsulfonamido)methyl) cyclohexanecarboxylate] was tested. Which IC50 did it give?
Answer: The IC50 was 2340 nM.

Question: How did the IC50 turn out when `O=C(O)c1ccc(S(=O)(=O)N(Cc2ccccc2)Cc2ccccc2Cl)cc1` [Example 5-141, 4-(N-benzyl-N-(2-chlorobenzyl)sulfamoyl)benzoic acid] was run?
Answer: Its IC50 is 4490 nM.

Question: `COc1ccc(CN(Cc2ccccc2OC)S(=O)(=O)c2ccc(C(=O)O)cc2)cc1` [Example 5-121, 4-(N-(2-methoxybenzyl)-N-(4-methoxybenzyl)sulfamoyl)benzoic acid] was tested. Which IC50 did it give?
Answer: Its IC50 is 2940 nM.

Same assay, conditions: Table D; read-out: hT2R14 IC50

Question: For `COc1cc(OC)c(/C=C2\SC(=S)N(CCC(=O)O)C2=O)c(OC)c1` [Example 6-12, (Z)-3-(4-oxo-2-thioxo-5-(2,4,6-trimethoxybenzylidene)thiazolidin-3-yl)propanoic acid], which IC50 is on record?
Answer: The IC50 was 9370 nM.

Question: With `Cn1c(=O)c2c(SCC(=O)NCc3ccccc3)ccnc2n(C)c1=O` [Example 6-29, N-benzyl-2-(1,3-dimethyl-2,4-dioxo-1,2,3,4-tetrahydropyrido[2,3-d]pyrimidin-5-ylthio)acetamide] as the compound, how does the IC50 read?
Answer: The IC50 was 710 nM.

Question: Which IC50 does the source give for `CCN(C)C(=O)CSc1nc(C)nc2c1c(=O)n(C)c(=O)n2C` [Example 6-22, N-ethyl-N-methyl-2-(2,6,8-trimethyl-5,7-dioxo-5,6,7,8-tetrahydropyrimido[4,5-d]pyrimidin-4-ylthio)acetamide] here?
Answer: Its IC50 is 861 nM.

Question: Which IC50 does the source give for `Cc1nc(SCC(=O)N2CCCCC2)c2c(=O)n(C)c(=O)n(C)c2n1` [Example 6-24, 1,3,7-trimethyl-5-(2-oxo-2-(piperidin-1-yl)ethylthio)pyrimido[4,5-d]pyrimidine-2,4(1H,3H)-dione] here?
Answer: Its IC50 is 292 nM.

Question: For `Cc1nc2ccc(NS(=O)(=O)c3ccc4c(c3)n(C)c(=O)c(=O)n4C)cc2nc1C` [Example 6-19, N-(2,3-dimethylquinoxalin-6-yl)-1,4-dimethyl-2,3-dioxo-1,2,3,4-tetrahydroquinoxaline-6-sulfonamide], which IC50 is on record?
Answer: The IC50 was 6330 nM.

Question: Which IC50 does the source give for `CCc1nc(SCC(=O)N2CCC(C)CC2)c2c(=O)n(C)c(=O)n(C)c2n1` [Example 6-26, 7-ethyl-1,3-dimethyl-5-(2-(4-methylpiperidin-1-yl)-2-oxoethylthio)pyrimido[4,5-d]pyrimidine-2,4(1H,3H)-dione] here?
Answer: Its IC50 is 721 nM.

Question: How did the IC50 turn out when `Cc1cc(C)c(C#N)c(NS(=O)(=O)c2ccc3c(c2)c(=O)n(C)c(=O)n3C)c1` [Example 6-17, N-(2-cyano-3,5-dimethylphenyl)-1,3-dimethyl-2,4-dioxo-1,2,3,4-tetrahydroquinazoline-6-sulfonamide] was run?
Answer: Its IC50 is 1950 nM.

Question: Which IC50 does the source give for `Cc1nc(SCC(=O)N2CCOCC2)c2c(=O)n(C)c(=O)n(C)c2n1` [Example 6-25, 1,3,7-trimethyl-5-(2-morpholino-2-oxoethylthio)pyrimido[4,5-d]pyrimidine-2,4(1H,3H)-dione] here?
Answer: The IC50 was 1010 nM.

Question: How did the IC50 turn out when `N#C/C(=C\c1ccc2c(c1)OCO2)C(=O)Nc1nnc(-c2ccccc2)s1` [Example 6-14, (E)-3-(benzo[d][1,3]dioxol-5-yl)-2-cyano-N-(5-phenyl-1,3,4-thiadiazol-2-yl)acrylamide] was run?
Answer: The IC50 was 2910 nM.
